Experimental data reported in patent US11840560B2, “Prodrugs and uses thereof” (Novo Nordisk A/S, priority 2022, dated 2023).
Marks after values point to notes of the source that are not given here. *1 amine or outer side, *2 acyl side, *3 side chain or, on linkers, in order; H or OH if unused. Where a SMILES comes first, the peptide text is derived from it. Side-chain parts run from the residue outwards. [ ]: non-standard residue; d: D form. The star is where a group is joined. C18 diacid = O=C(O)CCCCCCCCCCCCCCCCC(=O)*; C16 diacid = O=C(O)CCCCCCCCCCCCCCC(=O)*; γGlu = O=C(O)[C@H](CCC(=O)[*:2])N[*:1]; εLys = N[C@@H](CCCCN[*:1])C(=O)[*:2]; AEEA = NCCOCCOCC(=O)O; Aib = CC(C)(N)C(=O)O; Sar = CNCC(=O)O

How the values were obtained:
[1] = in vivo; design: species or system Göttingen minipigs; conditions: female, Göttingen, minipig, iv
Procedure: The purpose of this method is to determine the half-life in vivo of the derivatives of the present invention after i.v. administration to minipigs, i.e. the prolongation of their time in the body and thereby their time of action. This is done in a pharmacokinetic (PK) study, where the terminal half-life of the derivative in question is determined. By terminal half-life is generally meant the period of time it takes to halve a certain plasma concentration, measured after the initial distribution phase.
Female Göttingen minipigs were obtained from Ellegaard Göttingen Minipigs (Dalmose, Denmark) approximately 7-14 months of age and weighing from approximately 16-35 kg were used in the studies. The minipigs were housed individually and fed restrictedly once daily with SDS minipig diet (Special Diets Services, Essex, UK).
After at 3 weeks of acclimatisation two permanent central venous catheters were implanted in vena cava caudalis in each animal. The animals were allowed 1 week recovery after the surgery, and were then used for repeated pharmacokinetic studies with a suitable wash-out period between successive derivative dosing.
The animals were fasted for approximately 18 hours before dosing and from 0 to 4 hours after dosing but had ad libitum access to water during the whole period.
The sodium salts of compounds of Examples 1 were prepared using method SX_A under General Methods for preparation of the compounds of the invention. The resulting sodium salts were dissolved to a concentration of 50-300 nmol/mL in a buffer containing 0.007% polysorbate 20, 50 mM sodium phosphate, 70 mM sodium chloride, pH 7.4. Intravenous injections (the volume corresponding to usually 1-20 nmol/kg, for example 0.02-0.05 mL/kg) of the compounds were given through one catheter, and blood was sampled at predefined time points for up to 21 days post dosing (preferably through the other catheter). Blood samples (for example 0.8 mL) were collected in 8 mM EDTA buffer and then centrifuged at 4° C. and 1942 g for 10 minutes.
Plasma was pipetted into Micronic tubes on dry ice and kept at −20° C. until analysed for plasma concentration of the compounds using ELISA, or a similar antibody-based assay, or LCMS. Individual plasma concentration-time profiles were analysed by a non-compartmental model in Phoenix WinNonLin ver. 6.4. (Pharsight Inc., Mountain View, CA, USA), and the resulting terminal half-lives (harmonic mean) determined.
The terminal half-lives and/or the observed terminal half-lives, measured as described herein in General Methods for Measuring Terminal Half-Life in Minipigs are shown in Table 7. […] This provides evidence that conversion of prodrug to parent compound is occurring in vivo. The terminal half-life of the prodrug may be faster or slower than the corresponding parent compound due to the contribution of conversion on the terminal half-life of the prodrug.

[2] = physchem; format: physicochemical; conditions: buffer, pH 7.4
Procedure: The assay was performed to investigate the conversion half-life of prodrug to drug of the prodrugs of the invention. The conversion half-life was investigated in vitro at pH 7.4 upon incubation at 37° C.
Test compounds were dissolved to a concentration of 100 μM in phosphate-buffered saline (140 mM NaCl, 2.07 mM KCl, 8.05 mM Na2HPO4, 1.96 mM KH2PO4, pH 7.4). Solution pH was measured after dissolution and adjusted to pH 7.4 with aqueous NaOH if necessary. The solution was filtered through a 0.22 μm syringe filter, then incubated in a water bath at 37° C. Aliquots were withdrawn at defined timepoints, e.g. every 24-72 hours, for LCMS analysis.
LCMS analysis was performed using the procedure defined in LCMS_A above. The AUC of the prodrug, active drug, and DKP were determined using UV detection at 214 nm, and the ratio of prodrug AUC over total AUC of prodrug plus active drug plus DKP was calculated. The negative natural logarithm of this ratio was plotted over time, and a linear regression of this relationship was then performed.
The prodrug to drug conversion half-life of the compounds of the invention was measured as described in General Methods for Measuring Conversion Half-life.

[3] = in vivo; design: species or system beagle dogs; conditions: dog, po, 300 mg; for Tmax / half-life: male, beagle
Procedure: The purpose of this method is to determine the terminal half-life and plasma exposure in vivo of the compounds of the present invention after p.o. administration to beagle dogs, i.e. the terminal half-life and concentration of test substance that reaches circulation with time. This is done in a pharmacokinetic (PK) study, where these parameters of the compound in question are determined. By terminal half-life is generally meant the period of time it takes to halve a certain plasma concentration, measured after the initial distribution phase.
Tablet compositions comprising the test compounds obtained from Example 1 and SNAC (sodium N-(8-(2-hydroxybenzoyl)amino)caprylate) were prepared according to methods known to the person skilled in the art by mixing test substance with roller compacted SNAC and magnesium stearate as e.g. described in WO 2019/149880. Each tablet was comprised of 7.7 mg magnesium stearate, 2-4 mg of each compound tested, and 300 mg SNAC.
Male beagle dogs, 1-7 years of age and weighing 9-17 kg during the study period, were included in the study. The dogs were dosed in a fasting state. The dogs were group housed in pens (12 hours light: 12 hours dark), and fed individually and restrictedly once daily with Royal Canin Medium Adult dog food (Royal Canin Products, China Branch, or Brogaarden A/S, Denmark). The dogs were used for repeated PK studies with a suitable wash-out period between successive dosing. An appropriate acclimatisation period was given prior to initiation of the first PK study. All handling, dosing, and blood sampling of the animals were performed by trained and skilled staff. Before the studies, the dogs were fasted overnight and from 0 to 4 hours after dosing. The dogs were restricted to water 1 hour before dosing until 4 hours after dosing, but otherwise had adlibitum access to water during the whole period.
The compositions were administered by a single oral dosing to the dogs in groups of 6-8 dogs. The tablets were administered in the following manner: 10 min prior to tablet administration, the dogs may be dosed subcutaneously with approximately 3 nmol/kg of SEQ ID NO.: 7 ([…]), then tablets were placed in the back of the mouth of the dog to prevent chewing. The mouth was then closed, and 10 mL of tap water was given by syringe or gavage to facilitate swallowing of the tablet.
One blood sample was drawn before dosing, and additional samples were drawn at predefined time points after dosing, such as for up to 600 hours, to adequately cover the full plasma concentration-time absorption profile of the test substance. For each blood sample time point, approximately 0.8 mL of whole blood was collected in a 1.5 mL EDTA-coated tube, which was gently turned to mix the sample with EDTA. Blood samples were collected in EDTA buffer (8 mM) and then centrifuged at 4° C. and 2000 g for 10 minutes. Plasma was pipetted into Micronic tubes on dry ice, and kept at −20° C. or lower until analysis. Blood samples were taken as appropriate, for example from a venflon in the cephalic vein in the front leg for the first 2 hours and then with syringe from the jugular vein for the rest of the time points. The first few drops were allowed to drain from the venflon to avoid heparin saline from the venflon in the sample. All blood samples were collected into test tubes containing EDTA for stabilisation and kept on ice until centrifugation. Plasma was separated from whole blood by centrifugation and the plasma was stored at −20° C. or lower until analysis.
The plasma was analysed for test substance using LC-MS (Liquid Chromatography-Mass Spectrometry) as known to the person skilled in the art. […]

| half-life [1] | half-life at 100 μM [2] | AUC/Dose [3] | Cmax/Dose [3] | Tmax [3] | half-life [3] | Compound |
| --- | --- | --- | --- | --- | --- | --- |
| 118 h | 244 h | 41.2 kg·h/L | 0.66 kg/L | 4 h | 146 h | H-[dK]([γGlu-C16 diacid])[Sar]Y[Aib]EGTFTSDYSILLEEQAAREFIEWLLAGGPSK([AEEA-AEEA-γGlu-C16 diacid])GAPPPS-OH [Compound 1] |
| 102 h | 132 h |  |  |  |  | H-K([Gly-γGlu-C16 diacid])[Sar]Y[Aib]EGTFTSDYSILLEEQAAREFIEWLLAGGPSK([AEEA-AEEA-γGlu-C16 diacid])GAPPPS-OH [Compound 9] |
| 119 h | 111 h | 38.5 kg·h/L | 0.32 kg/L | 7 h | 139 h | H-K([γGlu-C16 diacid])[Sar]Y[Aib]EGTFTSDYSILLEEQAAREFIEWLLAGGPSK([AEEA-AEEA-γGlu-C16 diacid])GAPPPS-OH [Compound 3] |
| 121 h |  | 60.7 kg·h/L | 0.67 kg/L | 1.5 h | 104 h | CC[C@H](C)[C@H](NC(=O)[C@H](Cc1ccccc1)NC(=O)[C@H](CCC(=O)O)NC(=O)[C@H](CCCNC(=N)N)NC(=O)[C@H](C)NC(=O)[C@H](C)NC(=O)[C@H](CCC(N)=O)NC(=O)[C@H](CCC(=O)O)NC(=O)[C@H](CCC(=O)O)NC(=O)[C@H](CC(C)C)NC(=O)[C@H](CC(C)C)NC(=O)[C@@H](NC(=O)[C@H](CO)NC(=O)[C@H](Cc1ccc(O)cc1)NC(=O)[C@H](CC(=O)O)NC(=O)[C@H](CO)NC(=O)[C@@H](NC(=O)[C@H](Cc1ccccc1)NC(=O)[C@@H](NC(=O)CNC(=O)[C@H](CCC(=O)O)NC(=O)C(C)(C)NC(=O)[C@@H](N)Cc1ccc(O)cc1)[C@@H](C)O)[C@@H](C)O)[C@@H](C)CC)C(=O)N[C@@H](CCC(=O)O)C(=O)N[C@@H](Cc1c[nH]c2ccccc12)C(=O)N[C@@H](CC(C)C)C(=O)N[C@@H](CC(C)C)C(=O)N[C@@H](C)C(=O)NCC(=O)NCC(=O)N1CCC[C@H]1C(=O)N[C@@H](CO)C(=O)N[C@@H](CCCCNC(=O)COCCOCCNC(=O)COCCOCCNC(=O)CC[C@H](NC(=O)CCCCCCCCCCCCCCC(=O)O)C(=O)O)C(=O)NCC(=O)N[C@@H](C)C(=O)N1CCC[C@H]1C(=O)N1CCC[C@H]1C(=O)N1CCC[C@H]1C(=O)N[C@@H](CO)C(=O)O [Parent compound 1] (H-Y[Aib]EGTFTSDYSILLEEQAAREFIEWLLAGGPSK([AEEA-AEEA-γGlu-C16 diacid])GAPPPS-OH) |
| 118 h | 195 h |  |  |  |  | H-[dK]([AEEA-AEEA-γGlu-C16 diacid])[Sar]Y[Aib]EGTFTSDYSILLEEQAAREFIEWLLAGGPSK([AEEA-AEEA-γGlu-C16 diacid])GAPPPS-OH [Compound 10] |

| Compound | half-life [1] | half-life at 100 μM [2] | AUC/Dose [3] | Cmax/Dose [3] | Tmax [3] | half-life [3] |
| --- | --- | --- | --- | --- | --- | --- |
| CC[C@H](C)[C@H](NC(=O)[C@H](Cc1ccccc1)NC(=O)[C@H](CCC(=O)O)NC(=O)[C@H](CCCNC(=N)N)NC(=O)[C@H](C)NC(=O)[C@H](C)NC(=O)[C@H](CCC(N)=O)NC(=O)[C@H](CCCCNC(=O)[C@@H](N)CCCCNC(=O)[C@@H](N)CCCCNC(=O)CC[C@H](NC(=O)CCCCCCCCCCCCCCCCC(=O)O)C(=O)O)NC(=O)[C@H](CCC(=O)O)NC(=O)[C@H](CC(C)C)NC(=O)[C@H](CC(C)C)NC(=O)[C@@H](NC(=O)[C@H](CO)NC(=O)[C@H](Cc1ccc(O)cc1)NC(=O)[C@H](CC(=O)O)NC(=O)[C@H](CO)NC(=O)[C@@H](NC(=O)[C@H](Cc1ccccc1)NC(=O)[C@@H](NC(=O)CNC(=O)[C@H](CCC(=O)O)NC(=O)C(C)(C)NC(=O)[C@@H](N)Cc1ccc(O)cc1)[C@@H](C)O)[C@@H](C)O)[C@@H](C)CC)C(=O)N[C@@H](CCC(=O)O)C(=O)N[C@@H](Cc1c[nH]c2ccccc12)C(=O)N[C@@H](CC(C)C)C(=O)N[C@@H](CC(C)C)C(=O)N[C@@H](C)C(=O)NCC(=O)NCC(=O)N1CCC[C@H]1C(=O)N[C@@H](CO)C(=O)N[C@@H](CO)C(=O)NCC(=O)N[C@@H](C)C(=O)N1CCC[C@H]1C(=O)N1CCC[C@H]1C(=O)N1CCC[C@H]1C(=O)N[C@@H](CO)C(=O)O [Parent compound 4] (H-Y[Aib]EGTFTSDYSILLEK([εLys-εLys-γGlu-C18 diacid])QAAREFIEWLLAGGPSSGAPPPS-OH) | 106 h |  | 17.9* kg*h/L | 0.35* kg/L |  |  |
